Source: publication PMC6394892, “The identification and use of robust transaminases from a domestic drain metagenome” (Green Chemistry, 2018)
Values belong to the compound of their own block, whether it stands above or below them.

Columns and labels:
pQR2189 [1] = tested on: T1, pQR2189; assay: HPLC initial rates, Michaelis-Menten fit; assay type: biochemical, uncultured bacterium (household drain metagenome); conditions: apparent, PLP 1 mM, KPi pH 8 50 mM, 20% DMSO, 35 °C
T1 construct: N- and C-terminal His6 tags, pET-28a(+) NdeI/XhoI, expressed in E. coli BL21(DE3)
Description: HPLC initial rates, Michaelis-Menten fit on pQR2189

pQR2189 [2] = tested on: T1, pQR2189; assay: continuous UV absorbance at […] nm, Michaelis-Menten fit; assay type: biochemical, uncultured bacterium (household drain metagenome); conditions: apparent, PLP 0.1 mM, KPi pH 7.5 50 mM, 1% DMSO, 30 °C

SMILES: CC(C)N [compound 27, isopropylamine]
Km (pQR2189 [1]; 1-Boc-3-pyrrolidinone 10 mM): 10.6 ± 1.6 mM

Km (pQR2189 [1]; isopropylamine 200 mM): 18.9 ± 3.1 mM
SMILES: CC(C)(C)OC(=O)N1CCC(=O)C1 [18a, 1-Boc-3-pyrrolidinone]

Km (pQR2189 [2]; amine donor (S)-7 5 mM): 0.29 ± 0.08 mM
SMILES: CC(=O)C(=O)O [compound 2, pyruvate]

Km (pQR2189 [2]; pyruvate 1 mM): 14.8 ± 3.2 mM
SMILES: C[C@H](N)c1ccccc1 [(S)-7, (S)-α-methylbenzylamine]
